Patent US20080108568A1, “COMPOUNDS FOR IMPROVING LEARNING AND MEMORY” (TGEN, priority 2006, published 2008)
“Also recorded” adds a separate entry of the source.

Experiments:
aged rats = experiment: Morris water maze (reference memory); assay type: in vivo, rat
Method: The rats were also tested using the Morris water maze. The Morris water maze consists of a circular water bath with a single platform. The bath is divided into 4 quadrants and various annuli. A rat was placed in the water bath and the time and distance that the rat required to reach the platform was measured. The solving strategy used by the rat was also noted. The movement of the rat was tracked using a digital tracking system. Each rat underwent 4 trials per day, with entry into the maze varied by quadrant for each trial. The Morris water maze included 5 days of testing, with the first 4 days involving testing and day 5 involving a probe trial.
(§1) Aged animals were pre-loaded for 14 days at 10mg/kg/day (FAS LOW DOSE+PRIMING) or at 3 mg/kg/day (FAS LOW DOSE). After 14 days all animals were administered 3 mg/kg/day. Vehicle was normal saline (0.9%). The rats were subjected to the Radial Arm Maze and the Morris Water Maze described above.
Fasudil was also delivered via daily sub-cutaneous injections to aged (18-months old) rats at doses of 3 mg/kg/day (n=8) or 30 mg/kg/day (n=8). Controls included both aged and young (4-months old) rats injected daily with vehicle (normal saline). The low dose for Fasudil was based upon the previous study showing efficacy with 0.750 mg/kg/day hydroxyfasudil and the high dose was based on that reported in the literature as a commonly used therapeutic dose.

[1] = test system: aged (18-months old) rats; experiment: water escape radial arm maze, more difficult version of the working memory trial (7 out of 8 arms platformed); assay type: in vivo, rat
Method: (§2) This experiment included a decreased pre-loading phase, a more difficult version of the working memory trial (where 7 out of 8 arms were platformed), and an elongated version of the Morris maze (7 days plus a “probe” trial). Fasudil was delivered via daily sub-cutaneous injections to aged (18-months old) rats at doses of 3 mg/kg/day (n=8) or 10 mg/kg/day (n=8). Controls included both aged and young (4-months old) rats injected daily with vehicle (normal saline). The low dose for Fasudil was based upon the evidence in Example 3 showing efficacy and the high dose was based on that reported in the literature as a commonly used low therapeutic dose. There was a one day loading period for this experiment.

[2] = test system: aged (18-months old) rats; experiment: tolerability observation during daily sub-cutaneous dosing; assay type: in vivo, rat; conditions: 10 mg/kg/day s.c., after 7 days of drug delivery; animals switched to the low dose
Method: as §2

[3] = test system: aged rats (18 months old); experiment: water escape radial arm maze test (4 of 8 arms platformed); assay type: in vivo, rat
Method: Hydroxyfasudil was tested in vivo by administering to aged rats (18 months old) two doses of 0.75 mg/kg and 0.375 mg/kg, delivered subcutaneously each day for a period of 4-5 days before testing. During testing, hydroxyfasudil was administered in the morning of each testing day. Two control groups were used, with one group being untreated and the other group treated with the vehicle (saline). Both control groups include 9 members, with an age of 4 months.
The rats were then tested using the water escape radial arm maze test. The radial arm maze is a swim-based test without the need for food deprivation. The maze consists of 8 radial arms, with 4 of the arms having a submerged platform. […] The rat was given 180 seconds to locate a platform. If the rat located a platform, the rat was allowed 15 seconds on the platform, and was then removed. When a rat found a platform, that platform was removed prior to beginning the next trial. Each rat was subjected to 4 trials per day, with 1 trial per platform and 30 seconds between trials. Each rat was tested over a period of 12 days, with the first day consisting of training, days 2-7 considered “initial,” and days 8-12 considered “latter.”
Additional efficacy testing was performed using twenty-seven 18-month old male rats were utilized and divided randomly into three treatment groups: saline vehicle (“Aged Vehicle”), hydroxyfasudil in saline at a dose of 0.1875 mg per day (“Aged Low Dose”), and hydroxyfasudil at a dose of 0.3750 mg per day (“Aged High Dose”). Daily injections of the assigned substrate began four days prior to behavioral testing and continued throughout testing, with injections given approximately one hour before daily testing ensued. Animals were tested 4 trials per day for 12 consecutive days. Following the water radial arm maze, spatial reference memory was assessed using the Morris water maze. This testing consisted of 4 trials per day for 4 days with an additional probe trial on the final day.
Using the protocol described above for hydroxyfasudil, rats were treated with from 1 mg/kg to 2 mg/kg of fenretinide. The rats were subjected to the Radial Arm Maze and the Morris Water Maze described above.
as §1

[4] = test system: “memory molecule” transcripts in the hippocampus; experiment: expression profile of the entire hippocampus of hydroxyfasudil treated animals; assay type: in vivo; conditions: FIG. 6
Description: The tissue source is the entire hippocampus.
After testing, the rats were terminated and the brain dissected.

[5] = rats, 1 mg/kg to 2 mg/kg, FIG. 7

## O=S(=O)(c1cccc2cnccc12)N1CCCNCC1 [Fasudil, fasudil]
Aged rats; 3 mg/kg/day s.c.
  efficacy of the low dose (evidence in Example 3): efficacy
Aged rats; 14 days pre-loading at 10 or 3 mg/kg/day, then 3 mg/kg/day, collapsed across trials each day, FIG. 11A
  reference memory performance (inches swam to locate the hidden platform), by day: improves reference memory performance
Aged rats; 14 days pre-loading at 10 or 3 mg/kg/day, then 3 mg/kg/day, collapsed by trial for all four days, FIG. 11B
  reference memory performance (inches swam to locate the hidden platform), by trial: improves reference memory performance
[1]; FIG. 12 legend
  memory performance: improves memory performance
[1]; aged rats, 3 or 10 mg/kg/day s.c. (10 mg/kg/day switched to low dose after 7 days), especially trials 6 and 7, FIG. 12
  working memory performance: significant improvement in working memory performance
[2]
  trauma in dosed animals: began to show similar trauma as in the previous study

## CC1=C(/C=C/C(C)=C/C=C/C(C)=C/C(=O)Nc2ccc(O)cc2)C(C)(C)CCC1 [fenretinide]
[3]; 6 rats per group, FIG. 7 legend
  working memory: improving working memory
[3]; [5]
  memory, greater doses versus smaller doses: improved memory more than smaller doses
  number of incorrect errors made by the rats, versus the control: lowered the number of incorrect errors

## O=c1[nH]ccc2c(S(=O)(=O)N3CCCNCC3)cccc12 [hydroxyfasudil]
[3]; 18-month old male rats, 0.1875 mg per day and 0.3750 mg per day, daily injections from four days before testing, FIG. 16
  memory (working memory): improved memory; also recorded: improves working memory
[3]; FIG. 5 legend
  working memory: improves working memory
[3]; aged rats, 0.75 mg/kg and 0.375 mg/kg s.c. daily, FIGS. 3-5
  memory: improved memory
[3]; aged rats, 0.75 mg/kg and 0.375 mg/kg subcutaneously each day, FIGS. 3-4
  learning scores (orthogonal measures of working memory): improved learning scores
[3]; aged rats, 0.75 mg/kg vs 0.375 mg/kg s.c. daily, FIGS. 3-4
  improvements of learning, higher doses versus smaller doses: greater improvements of learning
[3]; aged rats, 0.75 mg/kg vs 0.375 mg/kg s.c. daily, FIGS. 3-5
  improvements of memory, higher doses versus smaller doses: greater improvements of memory
[3]; aging rats receiving the compound
  performance of aging rats compared with young rats: perform at a level comparable to young rats
[4]
  “memory molecule” transcripts in the hippocampus: alteration of “memory molecule” transcripts
